System: HeLa cells
Assay: Proliferation assay, crystal violet staining
Settings: Homo sapiens, 96 h, read-out: Inhibition of HeLa cell proliferation, HeLa cells, 4 days incubation

Row | SMILES | IC50 [nM]
1 | O=S(=O)(c1ccccc1)c1cc(N2CCOCC2)nc2c(-c3ccn[nH]3)nccc12 [Example 198, 2-(morpholin-4-yl)-4-(phenylsulfonyl)-8-(1H-pyrazol-5-yl)-1,7-naphthyridine] | > 3000
2 | CCS(=O)(=O)c1cc(N2CCOCC2)nc2c(-c3ccn[nH]3)nccc12 [Example 200, 4-(ethylsulfonyl)-2-(morpholin-4-yl)-8-(1H-pyrazol-5-yl)-1,7-naphthyridine] | 1960
3 | [O-][S+](c1ccccc1)c1cc(N2CCOCC2)nc2c(-c3ccn[nH]3)nccc12 (stereo not shown) [Example 201, 2-(morpholin-4-yl)-4-(phenylsulfinyl)-8-(1H-pyrazol-5-yl)-1,7-naphthyridine] | > 3000
4 | C[S+]([O-])c1cc(N2CCOCC2)nc2c(-c3ccn[nH]3)nccc12 (stereo not shown) [Example 202, 4-(methylsulfinyl)-2-(morpholin-4-yl)-8-(1H-pyrazol-5-yl)-1,7-naphthyridine] | 1530
5 | C[C@@H]1COCCN1c1cc(C2CC[S+]([O-])CC2)c2ccnc(-c3ccn[nH]3)c2n1 (stereo partly drawn) [Example 203, 2-[(3R)-3-methylmorpholin-4-yl]-4-[1-oxidotetrahydro-2H-thiopyran-4-yl]-8-(1H-pyrazol-5-yl)-1,7-naphthyridine] | 998
6 | C[C@@H]1COCCN1c1cc(C2CCS(=O)(=O)CC2)c2ccnc(-c3ccn[nH]3)c2n1 [Example 204, 4-(1,1-dioxidotetrahydro-2H-thiopyran-4-yl)-2-[(3R)-3-methylmorpholin-4-yl]-8-(1H-pyrazol-5-yl)-1,7-naphthyridine] | 568
7 | COc1ccc(Sc2cc(N3CCOCC3)nc3c(-c4ccn[nH]4)nccc23)cc1 [Example 213, 4-[(4-methoxyphenyl)sulfanyl]-2-(morpholin-4-yl)-8-(1H-pyrazol-5-yl)-1,7-naphthyridine] | > 3000
8 | Cc1cc(-c2cc(N3CCOCC3)nc3c(-c4ccn[nH]4)nccc23)n[nH]1 [Example 214, 4-(5-methyl-1H-pyrazol-3-yl)-2-(morpholin-4-yl)-8-(1H-pyrazol-5-yl)-1,7-naphthyridine] | > 3000
9 | O=C1CCCN1c1cc(N2CCOCC2)nc2c(-c3ccn[nH]3)nccc12 [Example 215, 1-[2-(morpholin-4-yl)-8-(1H-pyrazol-5-yl)-1,7-naphthyridin-4-yl]pyrrolidin-2-one] | > 3000
10 | c1cc(-c2cc(N3CCOCC3)nc3c(-c4ccn[nH]4)nccc23)ccn1 [Example 221, 2-(morpholin-4-yl)-8-(1H-pyrazol-5-yl)-4-(pyridin-4-yl)-1,7-naphthyridine] | > 3000
11 | COc1ccc(Sc2cc(N3CCOC[C@H]3C)nc3c(-c4ccn[nH]4)nccc23)cc1 [Example 222, 4-[(4-methoxyphenyl)sulfanyl]-2-[(3R)-3-methylmorpholin-4-yl]-8-(1H-pyrazol-5-yl)-1,7-naphthyridine] | 975
12 | Cc1cc(-c2cc(N3CCOC[C@H]3C)nc3c(-c4ccn[nH]4)nccc23)cs1 [Example 234, 2-[(3R)-3-methylmorpholin-4-yl]-4-(5-methylthiophen-3-yl)-8-(1H-pyrazol-5-yl)-1,7-naphthyridine] | 1210
13 | COc1ccsc1-c1cc(N2CCOC[C@H]2C)nc2c(-c3ccn[nH]3)nccc12 [Example 235, 4-(3-methoxythiophen-2-yl)-2-[(3R)-3-methylmorpholin-4-yl]-8-(1H-pyrazol-5-yl)-1,7-naphthyridine] | 950
14 | Cc1csc(-c2cc(N3CCOC[C@H]3C)nc3c(-c4ccn[nH]4)nccc23)c1 [Example 239, 2-[(3R)-3-methylmorpholin-4-yl]-4-(4-methylthiophen-2-yl)-8-(1H-pyrazol-5-yl)-1,7-naphthyridine] | 1130
15 | C[C@@H]1COCCN1c1cc(C2CCSCC2)c2ccnc(-c3ccn[nH]3)c2n1 [Example 241, 2-[(3R)-3-methylmorpholin-4-yl]-8-(1H-pyrazol-5-yl)-4-(tetrahydro-2H-thiopyran-4-yl)-1,7-naphthyridine] | 171
16 | C[C@@H]1COCCN1c1cc(C2=CCCN(C)C2)c2ccnc(-c3ccn[nH]3)c2n1 [Example 242, 2-[(3R)-3-methylmorpholin-4-yl]-4-(1-methyl-1,2,5,6-tetrahydropyridin-3-yl)-8-(1H-pyrazol-5-yl)-1,7-naphthyridine] | 811
17 | C[C@@H]1COCCN1c1cc(C2=CCN(C)CC2)c2ccnc(-c3ccn[nH]3)c2n1 [Example 243, 2-[(3R)-3-methylmorpholin-4-yl]-4-(1-methyl-1,2,3,6-tetrahydropyridin-4-yl)-8-(1H-pyrazol-5-yl)-1,7-naphthyridine] | 360
18 | C[C@@H]1COCCN1c1cc(C2=CCNCC2)c2ccnc(-c3ccn[nH]3)c2n1 [Example 245, 2-[(3R)-3-methylmorpholin-4-yl]-8-(1H-pyrazol-5-yl)-4-(1,2,3,6-tetrahydropyridin-4-yl)-1,7-naphthyridine] | 343
19 | C[C@@H]1COCCN1c1cc(-c2ccn(C3CCOCC3)n2)c2ccnc(-c3ccn[nH]3)c2n1 [Example 246, 2-[(3R)-3-methylmorpholin-4-yl]-8-(1H-pyrazol-5-yl)-4-[1-(tetrahydro-2H-pyran-4-yl)-1H-pyrazol-3-yl]-1,7-naphthyridine] | 2840
20 | C[C@@H]1COCCN1c1cc(C2CCNCC2)c2ccnc(-c3ccn[nH]3)c2n1 [Example 251, 2-[(3R)-3-methylmorpholin-4-yl]-4-(piperidin-4-yl)-8-(1H-pyrazol-5-yl)-1,7-naphthyridine] | 800
21 | C[C@@H]1COCCN1c1cc(-c2cnn(C3CCC3)c2)c2ccnc(-c3ccn[nH]3)c2n1 [Example 253, 4-(1-cyclobutyl-1H-pyrazol-4-yl)-2-[(3R)-3-methylmorpholin-4-yl]-8-(1H-pyrazol-5-yl)-1,7-naphthyridine] | 558
22 | C[C@@H]1COCCN1c1cc(-c2cnn(C3CC3)c2)c2ccnc(-c3ccn[nH]3)c2n1 [Example 254, 4-(1-cyclopropyl-1H-pyrazol-4-yl)-2-[(3R)-3-methylmorpholin-4-yl]-8-(1H-pyrazol-5-yl)-1,7-naphthyridine] | 312

Next, values leading:

Row | IC50 [nM] | SMILES
23 | 300 | Cc1ncccc1-c1cc(N2CCOC[C@H]2C)nc2c(-c3ccn[nH]3)nccc12 [Example 218, 2-[(3R)-3-methylmorpholin-4-yl]-4-(2-methylpyridin-3-yl)-8-(1H-pyrazol-5-yl)-1,7-naphthyridine]
24 | 2980 | CC(C)Oc1ncccc1-c1cc(N2CCOC[C@H]2C)nc2c(-c3ccn[nH]3)nccc12 [Example 219, 2-[(3R)-3-methylmorpholin-4-yl]-4-[2-(propan-2-yloxy)pyridin-3-yl]-8-(1H-pyrazol-5-yl)-1,7-naphthyridine]
25 | 1940 | COc1cnccc1-c1cc(N2CCOC[C@H]2C)nc2c(-c3ccn[nH]3)nccc12 [Example 227, 4-(3-methoxypyridin-4-yl)-2-[(3R)-3-methylmorpholin-4-yl]-8-(1H-pyrazol-5-yl)-1,7-naphthyridine]
26 | 447 | C[C@@H]1COCCN1c1cc(-c2cc(Cl)cnc2F)c2ccnc(-c3ccn[nH]3)c2n1 [Example 229, 4-(5-chloro-2-fluoropyridin-3-yl)-2-[(3R)-3-methylmorpholin-4-yl]-8-(1H-pyrazol-5-yl)-1,7-naphthyridine]
27 | 380 | C[C@@H]1COCCN1c1cc(-c2ccncc2F)c2ccnc(-c3ccn[nH]3)c2n1 [Example 230, 4-(3-fluoropyridin-4-yl)-2-[(3R)-3-methylmorpholin-4-yl]-8-(1H-pyrazol-5-yl)-1,7-naphthyridine]
28 | 341 | Cc1cc(-c2cc(N3CCOC[C@H]3C)nc3c(-c4ccn[nH]4)nccc23)cnc1C [Example 232, 4-(5,6-dimethylpyridin-3-yl)-2-[(3R)-3-methylmorpholin-4-yl]-8-(1H-pyrazol-5-yl)-1,7-naphthyridine]
29 | 180 | Cc1ncc(-c2cc(N3CCOC[C@H]3C)nc3c(-c4ccn[nH]4)nccc23)cc1F [Example 233, 4-(5-fluoro-6-methylpyridin-3-yl)-2-[(3R)-3-methylmorpholin-4-yl]-8-(1H-pyrazol-5-yl)-1,7-naphthyridine]
30 | 792 | C[C@@H]1COCCN1c1cc(-c2ccsc2Cl)c2ccnc(-c3ccn[nH]3)c2n1 [Example 236, 4-(2-chlorothiophen-3-yl)-2-[(3R)-3-methylmorpholin-4-yl]-8-(1H-pyrazol-5-yl)-1,7-naphthyridine]
31 | 528 | C[C@@H]1COCCN1c1cc(-c2cncc3ccccc23)c2ccnc(-c3ccn[nH]3)c2n1 [Example 237, 4-(isoquinolin-4-yl)-2-[(3R)-3-methylmorpholin-4-yl]-8-(1H-pyrazol-5-yl)-1,7-naphthyridine]
32 | 1180 | C[C@@H]1COCCN1c1cc(-c2ccc(Cl)s2)c2ccnc(-c3ccn[nH]3)c2n1 [Example 238, 4-(5-chlorothiophen-2-yl)-2-[(3R)-3-methylmorpholin-4-yl]-8-(1H-pyrazol-5-yl)-1,7-naphthyridine]
33 | 228 | C[C@@H]1COCCN1c1cc(-c2cnc(F)cc2F)c2ccnc(-c3ccn[nH]3)c2n1 [Example 247, 4-(4,6-difluoropyridin-3-yl)-2-[(3R)-3-methylmorpholin-4-yl]-8-(1H-pyrazol-5-yl)-1,7-naphthyridine]
34 | 451 | C[C@@H]1COCCN1c1cc(-c2cnn(C)c2)c2ccnc(-c3ccn[nH]3)c2n1 [Example 248, 2-[(3R)-3-methylmorpholin-4-yl]-4-(1-methyl-1H-pyrazol-4-yl)-8-(1H-pyrazol-5-yl)-1,7-naphthyridine]
35 | 409 | Cc1nn(C)cc1-c1cc(N2CCOC[C@H]2C)nc2c(-c3ccn[nH]3)nccc12 [Example 249, 4-(1,3-dimethyl-1H-pyrazol-4-yl)-2-[(3R)-3-methylmorpholin-4-yl]-8-(1H-pyrazol-5-yl)-1,7-naphthyridine]
36 | 116 | Cc1c(-c2cc(N3CCOC[C@H]3C)nc3c(-c4ccn[nH]4)nccc23)cnn1C [Example 250, 4-(1,5-dimethyl-1H-pyrazol-4-yl)-2-[(3R)-3-methylmorpholin-4-yl]-8-(1H-pyrazol-5-yl)-1,7-naphthyridine]
37 | 222 | C[C@@H]1COCCN1c1cc(-c2c[nH]nc2C(F)(F)F)c2ccnc(-c3ccn[nH]3)c2n1 [Example 252, 2-[(3R)-3-methylmorpholin-4-yl]-8-(1H-pyrazol-5-yl)-4-[3-(trifluoromethyl)-1H-pyrazol-4-yl]-1,7-naphthyridine]
